Common to all, as to assay type: cell-based
The target in one assay is mouse NMUR2 (Mus musculus, UniProt Q8BZ39). The assay is described as follows: FLIPR calcium mobilization assay, mouse NMUR2. The arrangement: expressed in transfected cells; host or cells: FLP-In CHO or HEK-293 FLP-In cells (pcDNA5). Conditions: mouse NMUR2; for % Activity: maximum response at 1 μM compared to hNMU-25; for EC50: FLIPR. From the text:
(§1) Human, mouse or rat cDNAs encoding NMUR1 or NMUR2 (as described in Howard et al. Nature 406: 70-74 (2000) were subcloned in pcDNA5 (Invitrogen) and transfected into FLP-In CHO cells and HEK-293 FLP-In cells purchased from Invitrogen (Carlsbad, Calif.) using lipofectamine (Invitrogen). The Flp-In system allows integration and expression of a particular gene of interest at a specific genomic location utilizing the Flp recombinase from yeast. The transfected cells were selected by growth in medium containing 200 μg/mL hygromycin (Invitrogen). Populations were frozen at early passage numbers, and these stocks were used for further studies. Stable clones that expressed the mRNAs were identified functionally by FLIPR as well as by RT-PCR. […] Two different rodent NMUR1 cell lines were thus generated: one with the codon as predicted from the genomic databases and another cell line with an engineered methionine (ATG) as the start codon. Additionally, stable cell lines expressing the human receptors were generated in HEK-293/aeq17 cells which stably express the aequorin gene under the CMV promoter. The human NMUR2 cDNA was cloned into pcDNA3.1 and human NMUR1 was subcloned into pIRES-puro (Clontech, Mountain View, Calif.), after transfection cells were selected in media containing G418 and either hygromycin (NMUR2) or puromycin (NMUR1).
(§2) The NMU receptors signal primarily through Gαq/11 proteins; therefore calcium mobilization assays can be utilized for functional activity.
(§3) Stable cell lines expressing human and or rodent NMUR1 or human NMUR2 receptors were plated at a density of 12,000 cells per well overnight on poly-lysine coated 384-well black-walled plates. The following day, the media was removed from the plates and the cells were subsequently loaded with Fluo-3 (Molecular Probes), a calcium sensitive dye, diluted in FLIPR buffer (1× Hank's buffered saline containing 20 mM HEPES, 0.1% BSA, 2.5 mM probenecid (Sigma) and 1.6 mM TR40). All reagents are from Invitrogen unless otherwise noted. Peptide stocks were resuspended in DMSO at a stock concentration of 2 mM and diluted in FLIPR buffer on the day of the experiment to a 4 μM working stock solution.
(§4) After a 90 minute incubation at room-temperature, cell plates were loaded onto a FLIPR (Molecular Devices) to monitor cellular fluorescence (excitation=488 nm; emission=540 nm) before and after compound/peptide addition. Eight to twelve point dose responses were tested on NMUR-expressing cell lines using FLIPR with 1 μM peptide as the highest dose. The response after peptide addition was taken as the maximum fluorescence units minus the fluorescence immediately prior to stimulation for each well. EC50 values were calculated using GraphPad Prism (San Diego, Calif.) software.
(§5) In vitro responses of Neuromedin U receptor agonists (NMU1 to NMU25) in the FLIPR assay for human (Table 3), mouse (Table 4) and rat (Table 5) NMUR1 and NMUR2. EC50s are reported in nM values. Percent activity refers to the maximum response at 1 μM compared to the hNMU-25 response at the same concentration. NT=not tested.

A further assay concerns the target T1, rat NMUR1-ATG (Rattus norvegicus, UniProt Q9JJI5).
T1 sequence (Q9JJI5 1-425): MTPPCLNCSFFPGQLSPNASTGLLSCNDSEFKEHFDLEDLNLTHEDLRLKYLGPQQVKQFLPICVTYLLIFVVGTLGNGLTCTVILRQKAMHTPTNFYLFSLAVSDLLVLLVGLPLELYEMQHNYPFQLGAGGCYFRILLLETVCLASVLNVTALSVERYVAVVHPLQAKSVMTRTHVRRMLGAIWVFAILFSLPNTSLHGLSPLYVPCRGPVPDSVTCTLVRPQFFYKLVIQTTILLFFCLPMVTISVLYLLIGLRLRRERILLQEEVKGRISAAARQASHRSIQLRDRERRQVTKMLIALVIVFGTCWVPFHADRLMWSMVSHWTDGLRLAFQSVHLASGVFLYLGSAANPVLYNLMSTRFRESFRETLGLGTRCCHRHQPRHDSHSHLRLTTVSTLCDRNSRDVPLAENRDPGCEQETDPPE
The assay is described as follows: FLIPR calcium mobilization assay, rat NMUR1-ATG. Details: expressed in transfected cells; host or cells: FLP-In CHO or HEK-293 FLP-In cells (pcDNA5). Conditions: rat NMUR1-ATG; for % Activity: maximum response at 1 μM compared to hNMU-25; for EC50: FLIPR.
Excerpt: as §1, §2, §3, §4, §5

Another assay concerns the target T2, hNMUR1 (Homo sapiens, UniProt Q9HB89).
T2 sequence (Q9HB89 1-426): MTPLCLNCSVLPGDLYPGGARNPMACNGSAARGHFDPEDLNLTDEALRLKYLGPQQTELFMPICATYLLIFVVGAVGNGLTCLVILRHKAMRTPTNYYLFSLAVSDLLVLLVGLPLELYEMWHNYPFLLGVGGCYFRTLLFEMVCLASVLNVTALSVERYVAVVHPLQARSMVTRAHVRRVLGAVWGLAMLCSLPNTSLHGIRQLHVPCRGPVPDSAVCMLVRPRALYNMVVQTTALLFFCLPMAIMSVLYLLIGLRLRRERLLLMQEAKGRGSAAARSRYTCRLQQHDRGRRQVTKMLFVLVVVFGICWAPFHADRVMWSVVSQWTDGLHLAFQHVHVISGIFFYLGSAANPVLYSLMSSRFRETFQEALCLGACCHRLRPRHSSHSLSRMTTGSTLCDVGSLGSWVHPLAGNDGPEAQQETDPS
Put plainly: FLIPR calcium mobilization assay, human NMUR1. The arrangement: expressed in transfected cells; host or cells: FLP-In CHO or HEK-293 FLP-In cells (pcDNA5); HEK-293/aeq17 lines (pIRES-puro) were also made. Conditions: human NMUR1; for % Activity: maximum response at 1 μM compared to hNMU-25 response at same concentration; for EC50: FLIPR.
Excerpt: as §1, §2, §3, §4, §5

Residues, ends and D or L forms follow the SMILES beside them. No end group written: not given here. *: point of attachment. Succinimide(1-Et,3-yl) = CCN1C(=O)CC(*)C1=O; Palmitoyl = CCCCCCCCCCCCCCCC(=O)*

Chain of mouse NMUR2 (Q8BZ39 whole entry): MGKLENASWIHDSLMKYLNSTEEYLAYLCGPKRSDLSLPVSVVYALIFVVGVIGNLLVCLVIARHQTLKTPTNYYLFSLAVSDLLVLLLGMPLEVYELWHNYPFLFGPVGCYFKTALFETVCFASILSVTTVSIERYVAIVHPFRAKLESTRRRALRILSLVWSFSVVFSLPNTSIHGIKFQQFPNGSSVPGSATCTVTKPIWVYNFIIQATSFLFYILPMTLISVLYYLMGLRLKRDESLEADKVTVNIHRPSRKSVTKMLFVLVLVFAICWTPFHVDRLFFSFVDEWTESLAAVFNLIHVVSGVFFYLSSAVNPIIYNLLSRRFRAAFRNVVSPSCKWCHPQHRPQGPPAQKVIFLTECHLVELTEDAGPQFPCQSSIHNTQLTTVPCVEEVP

On to `CCN1C(=O)CC(SC[C@H](NC(C)=O)C(=O)N[C@@H](C)C(=O)N[C@@H](CO)C(=O)N[C@@H](CCC(N)=O)C(=O)N[C@@H](CO)C(=O)N[C@@H](CCCNC(=N)N)C(=O)NCC(=O)N[C@@H](Cc2ccc(O)cc2)C(=O)N[C@@H](Cc2ccccc2)C(=O)N[C@@H](CC(C)C)C(=O)N[C@@H](Cc2ccccc2)C(=O)N[C@@H](CCCNC(=N)N)C(=O)N2CCC[C@H]2C(=O)N[C@@H](CCCNC(=N)N)C(=O)N[C@@H](CC(N)=O)C(N)=O)C1=O` (stereo partly shown) [NMU17] (Ac-C(Succinimide(1-Et,3-yl))ASQSRGYFLFRPRN-NH2), for which the “% Activity” value on mouse NMUR2, on rat NMUR1-ATG and at hNMUR1 was 100% throughout.
Turning to `CCN1C(=O)CC(SC[C@H](NC(C)=O)C(=O)N[C@@H](Cc2ccccc2)C(=O)N[C@@H](CCC(N)=O)C(=O)N[C@@H](CO)C(=O)N2CCC[C@H]2C(=O)N[C@@H](Cc2ccccc2)C(=O)N[C@@H](C)C(=O)N[C@@H](CO)C(=O)N[C@@H](CCC(N)=O)C(=O)N[C@@H](CO)C(=O)N[C@@H](CCCNC(=N)N)C(=O)NCC(=O)N[C@@H](Cc2ccc(O)cc2)C(=O)N[C@@H](Cc2ccccc2)C(=O)N[C@@H](CC(C)C)C(=O)N[C@@H](Cc2ccccc2)C(=O)N[C@@H](CCCNC(=N)N)C(=O)N2CCC[C@H]2C(=O)N[C@@H](CCCNC(=N)N)C(=O)N[C@@H](CC(N)=O)C(N)=O)C1=O` (stereo partly shown) [NMU19] (Ac-C(Succinimide(1-Et,3-yl))FQSPFASQSRGYFLFRPRN-NH2), the entries for the “% Activity” value at mouse NMUR2, on rat NMUR1-ATG and at hNMUR1 were 100%, 100% and 95.9%, respectively.
As to `CCN1C(=O)CC(SC[C@H](NC(C)=O)C(=O)N[C@@H](CSC2CC(=O)N(CC)C2=O)C(=O)N[C@@H](Cc2ccccc2)C(=O)N[C@@H](CCCNC(=N)N)C(=O)N[C@H](C(=O)N[C@@H](CC(=O)O)C(=O)N[C@@H](CCC(=O)O)C(=O)N[C@@H](CCC(=O)O)C(=O)N[C@@H](Cc2ccccc2)C(=O)N[C@@H](CCC(N)=O)C(=O)N[C@@H](CO)C(=O)N2CCC[C@H]2C(=O)N[C@@H](Cc2ccccc2)C(=O)N[C@@H](C)C(=O)N[C@@H](CO)C(=O)N[C@@H](CCC(N)=O)C(=O)N[C@@H](CO)C(=O)N[C@@H](CCCNC(=N)N)C(=O)NCC(=O)N[C@@H](Cc2ccc(O)cc2)C(=O)N[C@@H](Cc2ccccc2)C(=O)N[C@@H](CC(C)C)C(=O)N[C@@H](Cc2ccccc2)C(=O)N[C@@H](CCCNC(=N)N)C(=O)N2CCC[C@H]2C(=O)N[C@@H](CCCNC(=N)N)C(=O)N[C@@H](CC(N)=O)C(N)=O)C(C)C)C1=O` (stereo partly shown) [NMU22] (Ac-C(Succinimide(1-Et,3-yl))C(Succinimide(1-Et,3-yl))FRVDEEFQSPFASQSRGYFLFRPRN-NH2), the “% Activity” value is 100% on mouse NMUR2, 100% at rat NMUR1-ATG and 95.6% at hNMUR1.
On to `CCCCCCCCCCCCCCCC(=O)N[C@@H](CSC1CC(=O)N(CC)C1=O)C(=O)N[C@@H](Cc1ccccc1)C(=O)N[C@@H](CCCNC(=N)N)C(=O)N[C@H](C(=O)N[C@@H](CC(=O)O)C(=O)N[C@@H](CCC(=O)O)C(=O)N[C@@H](CCC(=O)O)C(=O)N[C@@H](Cc1ccccc1)C(=O)N[C@@H](CCC(N)=O)C(=O)N[C@@H](CO)C(=O)N1CCC[C@H]1C(=O)N[C@@H](Cc1ccccc1)C(=O)N[C@@H](C)C(=O)N[C@@H](CO)C(=O)N[C@@H](CCC(N)=O)C(=O)N[C@@H](CO)C(=O)N[C@@H](CCCNC(=N)N)C(=O)NCC(=O)N[C@@H](Cc1ccc(O)cc1)C(=O)N[C@@H](Cc1ccccc1)C(=O)N[C@@H](CC(C)C)C(=O)N[C@@H](Cc1ccccc1)C(=O)N[C@@H](CCCNC(=N)N)C(=O)N1CCC[C@H]1C(=O)N[C@@H](CCCNC(=N)N)C(=O)N[C@@H](CC(N)=O)C(N)=O)C(C)C` (stereo partly shown) [NMU24] (Palmitoyl-C(Succinimide(1-Et,3-yl))FRVDEEFQSPFASQSRGYFLFRPRN-NH2), for which the “% Activity” value on mouse NMUR2 stood at 82.4%; at rat NMUR1-ATG, 80.8%; at hNMUR1 it was 34.4%.
For “Ac-C2FQSPFASQSRGYFLFRPRN-CONH2 ({Ac-C(PEG 40 kDa)}-FQSPFASQSRGYFLFRPRN-NH2; not fully specified; printed as Ac-C2FQSPFASQSRGYFLFRPRN-CONH2) [NMU20, C2 = Cys(PEG)240 kDa]”, the values for the EC50 in the assay with mouse NMUR2, in the assay with rat NMUR1-ATG and with hNMUR1 were 14.8 nM, 7.2 nM and 16.4 nM, respectively.
In the case of “Ac-C2FRVDEEFQSPFASQSRGYFLFRPRN-CONH2 [NMU9] ({Ac-C(PEG 40 kDa)}-FRVDEEFQSPFASQSRGYFLFRPRN-NH2) [C2 = Cys(PEG)240 kDa from Nektar (mPEG2-MAL-40 k)]”, the results for the EC50 in the assay with mouse NMUR2, in the assay with rat NMUR1-ATG and with hNMUR1 were 19 nM, 9.7 nM and 50.6 nM, respectively. The “% Activity” value with hNMUR1 amounted to 94.4%.
Consider “Ac-C4-C4-FRVDEEFQSPFASQSRGYFLFRPRN-CONH2 ({Ac-C(PEG 20 kDa)-C(PEG 20 kDa)}-FRVDEEFQSPFASQSRGYFLFRPRN-NH2) [NMU23, C4 = Cys(PEG)20 kDa]”, for which the EC50 with mouse NMUR2 was 21.3 nM; in the assay with rat NMUR1-ATG, 127 nM; with hNMUR1, 300 nM. Further, the “% Activity” value with rat NMUR1-ATG was determined as 76.4%; with hNMUR1, 66.9%.
As for Ac-FRVDEEFQSPFASQSRGYFLFRPRN-NH2 [NMU2], the EC50 at mouse NMUR2 came out at 1.2 nM; at hNMUR1 it was 5.5 nM. The entries for the “% Activity” value on mouse NMUR2, on rat NMUR1-ATG and at hNMUR1 were 100%, 89.2% and 99.0%, respectively.
In the case of Ac-FRVDEEFQSPFASQSRPYFLFRPRN-NH2 [NMU5], on mouse NMUR2, the EC50 came to 1 nM. Besides, the “% Activity” value was determined as 100% on mouse NMUR2, 100% on rat NMUR1-ATG and 98.1% at hNMUR1.
For the compound GYFLFRPRN-NH2 [NMU3], the “% Activity” value on mouse NMUR2 is reported as 100%; at rat NMUR1-ATG it was 100%; on hNMUR1, 98.9%.
As to H-FRVDEEFQSPFASQSRPYFLFRPRN-NH2 [NMU4], the EC50 at mouse NMUR2 came out at 1.2 nM. The entries for the “% Activity” value on mouse NMUR2, on rat NMUR1-ATG and at hNMUR1 were 100%, 100% and 97.0%, respectively.
